The source of these data is patent US20210113568A1, “PREVENTIVE AND/OR THERAPEUTIC AGENT FOR AUTOIMMUNE DISEASE COMPRISING COMPOUND HAVING Btk INHIBITORY ACTIVITY AS ACTIVE INGREDIENT” (ONO PHARMACEUTICAL CO., LTD., priority 2018, published 2021).

The IC50 is the midpoint of a concentration-inhibition curve. High values mean lower potency, low ones higher potency.

One assay concerns human neutrophils. The assay can be described thus: Measurement of activation of human neutrophils (NETs formation, SYTOX Green fluorescence, immune complex stimulation). Type of assay: cell-based. As to conditions: Neutrophil, immobilized HSA/anti-HSA immune complex, 1 hour preincubation, 4 hours at 37° C. The protocol:
Human serum albumin (HSA) (Sigma) was immobilized on a 96-well plate and anti-HSA antibody (Sigma) was added to form an immune complex. Blocking was performed with 10% fetal bovine serum (FBS), and the plate was then used for neutrophil activation.
Various compounds having a Btk inhibitory activity were used as the test compounds. The test compound was dissolved in DMSO and dilution with RPMI 1640 culture medium (10% FBS, contained 1% penicillin/streptomycin) was then performed to prepare a test compound solution with a concentration 11-times that of the final concentration. 180 μL of a culture medium-diluted human neutrophil suspension was added to 20 μL of the 11×-concentration test compound solution, or the medium (1.1% DMSO), and incubation was performed for 1 hour at room temperature.
20 μL of a 50 μM SYTOX Green solution (Thermo Fisher Scientific Inc.) was then added to the plate bearing the immobilized immune complex; 180 μL (1×10^5 cells/well) of the test compound-treated neutrophil suspension was added; and incubation was carried out for 4 hours at 37° C. and 5% CO2. The relative fluorescence units of the SYTOX Green bound to NETs from the neutrophils were measured using a microplate reader (Molecular Devices) and conditions of an excitation wavelength of 475 nm and a fluorescence wavelength of 523 nm. The percent inhibition (%) for the test compound was calculated using the formula given below. The percent inhibition (%) was graphically plotted using Prism (ver. 5.04, GraphPad Software) and the IC50 value was determined.
A: relative fluorescence units when the test compound was added B: relative fluorescence units at the time of stimulation C: relative fluorescence units without stimulation
As for `Cc1c(-c2c(F)cc(C(N)=O)c3[nH]c4c(c23)CC[C@H](C(C)(C)O)C4)cccc1-n1c(=O)c2cccc(F)c2n(C)c1=O` [BMS-986142], the midpoint of inhibition, the IC50, lay at 44 nM.

`C=CC(=O)N1CCC[C@@H](n2nc(-c3ccc(Oc4ccccc4)cc3)c3c(N)ncnc32)C1` [ibrutinib] yielded an IC50 of 3.6 nM.

`C[C@H]1CN(C2COC2)CCN1c1ccc(Nc2cc(-c3ccnc(N4CCn5c(cc6c5CC(C)(C)C6)C4=O)c3CO)cn(C)c2=O)nc1` [fenebrutinib] returned an IC50 of 62 nM.

Consider `CC#CC(=O)N1CCC[C@H]1c1nc(-c2ccc(C(=O)Nc3ccccn3)cc2)c2c(N)nccn12` [acalabrutinib], for which the half-maximal inhibitory concentration (IC50) was 84 nM.

The compound `CC#CC(=O)N1CC[C@@H](n2c(=O)n(-c3ccc(Oc4ccccc4)cc3)c3c(N)ncnc32)C1` [tirabrutinib, 6-amino-9-[(3R)-1-(buta-2-ynoyl)pyrrolidin-3-yl]-7-(4-phenoxyphenyl)-7,9-dihydro-8H-purin-8-one] came in with an IC50 of 22 nM.

The assay is the same for the next values; noted with them: Neutrophil, immobilized HSA/anti-HSA immune complex, 1 hour preincubation, 4 hours at 37° C., unit given as M.
`C=CC(=O)N1CCC(CNc2ncnc(N)c2-c2ccc(Oc3ccccc3)cc2)CC1` [evobrutinib] gave an IC50 of 57 nM.
